Experimental data published in patent US7135572B2 (CJ Corp, priority 2001, dated 2006).

Assays:
cyclooxygenase-1 = biological target: T1, cyclooxygenase-1 (Homo sapiens, UniProt P23219); experiment: Inhibition of cyclooxygenase-1 in U-937 cells (PGE2 quantitation); assay type: cell-based; conditions: for Inhibitory effects of cyclooxygenase (COX): COX-1: U-937 cells
T1 construct: The cultured U-937 (humane lymphoma cell, obtained from Korean cell line bank) was centrifuged to collect the pellet; endogenous in cells; host or cells: U-937 (human lymphoma cell line, Korean cell line bank)
Method: (§1) In order to investigate pharmacologically the selective inhibition activity against cyclooxygenase-2 enzyme, the inhibitive effects against cyclooxygenase-1 and cyclooxygenase-2 were measured by two methods as follows.
Then, the pellet was diluted with 1×HBSS(Hank's balanced salt solutin) at the concentration of 1×10^6 cells/ml, and 1 ml of them was transferred into each well of 12-well plates, and then dissolved with DMSO. 5μl of the diluted sample solution, and 5μl of DMSO vehicle were added therein and mixed, and the mixture was cultured at 37° C. in Co2 incubator for 15 minutes. Arachidonic acid as a substrate was dissolved in ethanol to prepare a stock solution with a concentration of 10 mM, followed by diluting with 1×HBSS to prepare the solution of 1 mM. 10 μl of 1 mM Arachidonic acid solution was added to each of the treated wells, and the mixture was cultured at 37° C. in CO2 incubator for 30 minutes. The cell solution of each well was collected in the centrifuge tube and was centrifuged at 4° C. for 5 minutes at 10,000 rpm. As PGE2 existed in the supernatant separated from collected cell, the concentration of PGE2 was quantitated by using monoclonal kit from Cayman Chemicals, and the concentration of samples and vehicle were compared to estimate the inhibition ratio (%) of each compound against cyclooxygenase-1. Ultimately, the inhibition effect against the cyclooxygenase-1 enzyme was obtained from the result.

cyclooxygenase-2 = biological target: T2, cyclooxygenase-2 (Mus musculus, UniProt Q05769); experiment: Inhibition of cyclooxygenase-2 in Raw 264.7 cells treated with interferon γ and LPS (PGE2 EIA); assay type: cell-based; conditions: for Inhibitory effects of cyclooxygenase (COX): COX-2: Raw 264.7 cells
T2 construct: endogenous in cells; host or cells: Raw 264.7 (Korean cell line bank), aspirin-pretreated, induced with interferon gamma and LPS
T2 sequence (Q05769 18-604): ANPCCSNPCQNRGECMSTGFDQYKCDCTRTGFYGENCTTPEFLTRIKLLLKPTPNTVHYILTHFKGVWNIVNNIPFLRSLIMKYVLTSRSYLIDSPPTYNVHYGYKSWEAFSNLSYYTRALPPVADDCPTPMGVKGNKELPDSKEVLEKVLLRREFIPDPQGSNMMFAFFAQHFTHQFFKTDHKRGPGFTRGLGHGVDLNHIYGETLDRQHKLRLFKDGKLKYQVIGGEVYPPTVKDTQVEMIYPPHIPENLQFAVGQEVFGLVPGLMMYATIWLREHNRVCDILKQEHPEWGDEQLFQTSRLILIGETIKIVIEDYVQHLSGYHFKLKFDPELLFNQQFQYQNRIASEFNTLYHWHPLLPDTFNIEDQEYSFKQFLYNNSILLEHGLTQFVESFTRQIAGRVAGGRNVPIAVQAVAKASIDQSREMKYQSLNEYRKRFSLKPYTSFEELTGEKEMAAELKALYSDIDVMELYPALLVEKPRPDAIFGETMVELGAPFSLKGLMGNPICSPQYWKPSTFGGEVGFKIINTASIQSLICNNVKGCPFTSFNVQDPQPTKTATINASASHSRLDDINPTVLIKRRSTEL
Method: as §1
And then, each samples were replaced with new media and cultured for 30 minutes. In addition, the samples was treated with 100 units/ml of interferon Υ and 100 ng/ml of lipopolysaccharide(LPS), and cultured for 18 hours. Then, the media was transferred to other tubes and the PGE 2 was quantitated by using EIA kit from Cayman Chemicals.

T1 sequence (P23219 24-599): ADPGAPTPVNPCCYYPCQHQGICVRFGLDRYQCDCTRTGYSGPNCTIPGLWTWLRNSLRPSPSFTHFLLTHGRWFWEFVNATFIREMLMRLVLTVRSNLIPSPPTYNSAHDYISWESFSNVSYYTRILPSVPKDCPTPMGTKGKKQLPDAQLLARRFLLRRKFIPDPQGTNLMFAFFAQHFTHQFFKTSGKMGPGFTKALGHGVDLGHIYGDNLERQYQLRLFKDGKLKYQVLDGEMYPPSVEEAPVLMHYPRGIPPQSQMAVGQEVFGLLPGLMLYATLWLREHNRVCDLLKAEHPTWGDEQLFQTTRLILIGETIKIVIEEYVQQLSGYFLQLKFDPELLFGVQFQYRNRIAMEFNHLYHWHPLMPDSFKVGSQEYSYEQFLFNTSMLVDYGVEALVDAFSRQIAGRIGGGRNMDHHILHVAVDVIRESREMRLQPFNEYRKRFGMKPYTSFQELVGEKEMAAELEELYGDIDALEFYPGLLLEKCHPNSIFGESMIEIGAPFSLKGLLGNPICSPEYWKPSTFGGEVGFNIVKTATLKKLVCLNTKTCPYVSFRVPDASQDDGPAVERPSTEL

## Cc1nc(-c2ccccc2)n(-c2ccc(S(N)(=O)=O)cn2)n1 [Example 14, 6-(3-methyl-5-phenyl-[1,2,4]triazole-1-yl)-pyridine-3-sulfonic acid amide]
cyclooxygenase-1; 3 μM
  Inhibitory effects of cyclooxygenase (COX): COX-1: 12.8 % inhibition
cyclooxygenase-1; 10 μM
  Inhibitory effects of cyclooxygenase (COX): COX-1: 20.4 % inhibition
cyclooxygenase-1; 30 μM
  Inhibitory effects of cyclooxygenase (COX): COX-1: 28.9 % inhibition
cyclooxygenase-1; same condition as Celecoxib
  inhibition effect against cyclooxygenase-1 compared with Celecoxib (in words): much lower level
cyclooxygenase-2; 30 nM
  Inhibitory effects of cyclooxygenase (COX): COX-2: 72.1 % inhibition
cyclooxygenase-2; 100 nM
  Inhibitory effects of cyclooxygenase (COX): COX-2: 99.8 % inhibition
cyclooxygenase-2; 300 nM
  Inhibitory effects of cyclooxygenase (COX): COX-2: 99.9 % inhibition
cyclooxygenase-2; COX-2 versus COX-1
  selectivity of cyclooxygenase-2 compared with the comparative substance (in words): better than any other substances
cyclooxygenase-2; low concentration, same condition as Celecoxib
  inhibition effect against cyclooxygenase-2 compared with Celecoxib (in words): more excellent

## Cc1nc(-c2ccc(F)cc2)n(-c2ccc(S(N)(=O)=O)cn2)n1 [Example 15, 6-[5-(4-fluoro-phenyl)-3-methyl-[1,2,4]triazole-1-yl]-pyridine-3-sulfonic acid amide]
cyclooxygenase-1; 3 μM
  Inhibitory effects of cyclooxygenase (COX): COX-1: 35.7 % inhibition
cyclooxygenase-1; 10 μM
  Inhibitory effects of cyclooxygenase (COX): COX-1: 41.0 % inhibition
cyclooxygenase-1; 30 μM
  Inhibitory effects of cyclooxygenase (COX): COX-1: 46.9 % inhibition
cyclooxygenase-2; 30 nM
  Inhibitory effects of cyclooxygenase (COX): COX-2: 27.1 % inhibition
cyclooxygenase-2; 100 nM
  Inhibitory effects of cyclooxygenase (COX): COX-2: 28.8 % inhibition
cyclooxygenase-2; 300 nM
  Inhibitory effects of cyclooxygenase (COX): COX-2: 38.9 % inhibition

## Cc1nc(-c2ccc(Cl)cc2)n(-c2ccc(S(N)(=O)=O)cn2)n1 [Example 16, 6-[5-(4-chloro-phenyl)-3-methyl-[1,2,4]triazole-1-yl]-pyridine-3-sulfonic acid amide]
cyclooxygenase-1; 3 μM
  Inhibitory effects of cyclooxygenase (COX): COX-1: 24.5 % inhibition
cyclooxygenase-1; 10 μM
  Inhibitory effects of cyclooxygenase (COX): COX-1: 43.2 % inhibition
cyclooxygenase-1; 30 μM
  Inhibitory effects of cyclooxygenase (COX): COX-1: 55.1 % inhibition
cyclooxygenase-2; 30 nM
  Inhibitory effects of cyclooxygenase (COX): COX-2: 32.4 % inhibition
cyclooxygenase-2; 100 nM
  Inhibitory effects of cyclooxygenase (COX): COX-2: 34.1 % inhibition
cyclooxygenase-2; 300 nM
  Inhibitory effects of cyclooxygenase (COX): COX-2: 85.2 % inhibition

## Cc1nc(-c2ccc(Br)cc2)n(-c2ccc(S(N)(=O)=O)cn2)n1 [Example 17, 6-[5-(4-bromo-phenyl)-3-methyl-[1,2,4]triazole-1-yl]-pyridine-3-sulfonic acid amide]
cyclooxygenase-1; 3 μM
  Inhibitory effects of cyclooxygenase (COX): COX-1: 5.6 % inhibition
cyclooxygenase-1; 10 μM
  Inhibitory effects of cyclooxygenase (COX): COX-1: 28.7 % inhibition
cyclooxygenase-1; 30 μM
  Inhibitory effects of cyclooxygenase (COX): COX-1: 32.7 % inhibition
cyclooxygenase-2; 30 nM
  Inhibitory effects of cyclooxygenase (COX): COX-2: 47.8 % inhibition
cyclooxygenase-2; 100 nM
  Inhibitory effects of cyclooxygenase (COX): COX-2: 66.9 % inhibition
cyclooxygenase-2; 300 nM
  Inhibitory effects of cyclooxygenase (COX): COX-2: 78.2 % inhibition

## Cc1ccc(-c2nc(C)nn2-c2ccc(S(N)(=O)=O)cn2)cc1 [Example 18, 6-(3-methyl-5-p-toly-[1,2,4]triazole-1-yl)-pyridine-3-sulfonic acid amide]
cyclooxygenase-1; 3 μM
  Inhibitory effects of cyclooxygenase (COX): COX-1: 50.4 % inhibition
cyclooxygenase-1; 10 μM
  Inhibitory effects of cyclooxygenase (COX): COX-1: 62.9 % inhibition
cyclooxygenase-1; 30 μM
  Inhibitory effects of cyclooxygenase (COX): COX-1: 75.1 % inhibition
cyclooxygenase-2; 30 nM
  Inhibitory effects of cyclooxygenase (COX): COX-2: 26.4 % inhibition
cyclooxygenase-2; 100 nM
  Inhibitory effects of cyclooxygenase (COX): COX-2: 37.5 % inhibition
cyclooxygenase-2; 300 nM
  Inhibitory effects of cyclooxygenase (COX): COX-2: 46.5 % inhibition

## COc1ccc(-c2nc(C)nn2-c2ccc(S(N)(=O)=O)cn2)cc1 [Example 19, 6-[5-(4-methoxy-phenyl)-3-mehtyl-[1,2,4]triazole-1-yl]-pyridine-3-sulfonic acid amide]
cyclooxygenase-1; 3 μM
  Inhibitory effects of cyclooxygenase (COX): COX-1: 46.9 % inhibition
cyclooxygenase-1; 10 μM
  Inhibitory effects of cyclooxygenase (COX): COX-1: 61.0 % inhibition
cyclooxygenase-1; 30 μM
  Inhibitory effects of cyclooxygenase (COX): COX-1: 77.6 % inhibition
cyclooxygenase-2; 30 nM
  Inhibitory effects of cyclooxygenase (COX): COX-2: 34.8 % inhibition
cyclooxygenase-2; 100 nM
  Inhibitory effects of cyclooxygenase (COX): COX-2: 43.1 % inhibition
cyclooxygenase-2; 300 nM
  Inhibitory effects of cyclooxygenase (COX): COX-2: 69.5 % inhibition

## Cc1nc(-c2cccc(F)c2)n(-c2ccc(S(N)(=O)=O)cn2)n1 [Example 20, 6-[5-(3-fluoro-phenyl)-3-mehtyl-[1,2,4]triazole-1-yl]-pyridine-3-sulfonic acid amide]
cyclooxygenase-1; 3 μM
  Inhibitory effects of cyclooxygenase (COX): COX-1: 27.2 % inhibition
cyclooxygenase-1; 10 μM
  Inhibitory effects of cyclooxygenase (COX): COX-1: 31.6 % inhibition
cyclooxygenase-1; 30 μM
  Inhibitory effects of cyclooxygenase (COX): COX-1: 34.7 % inhibition
cyclooxygenase-2; 30 nM
  Inhibitory effects of cyclooxygenase (COX): COX-2: 30.2 % inhibition
cyclooxygenase-2; 100 nM
  Inhibitory effects of cyclooxygenase (COX): COX-2: 57.8 % inhibition
cyclooxygenase-2; 300 nM
  Inhibitory effects of cyclooxygenase (COX): COX-2: 74.0 % inhibition

## Cc1nc(-c2cccc(Cl)c2)n(-c2ccc(S(N)(=O)=O)cn2)n1 [Example 21, 6-[5-(3-chloro-phenyl)-3-methyl-[1,2,4]triazole-1-yl]-pyridine-3-sulfonic acid amide]
cyclooxygenase-1; 3 μM
  Inhibitory effects of cyclooxygenase (COX): COX-1: 44.7 % inhibition
cyclooxygenase-1; 10 μM
  Inhibitory effects of cyclooxygenase (COX): COX-1: 56.7 % inhibition
cyclooxygenase-1; 30 μM
  Inhibitory effects of cyclooxygenase (COX): COX-1: 75.6 % inhibition
cyclooxygenase-2; 30 nM
  Inhibitory effects of cyclooxygenase (COX): COX-2: 43.9 % inhibition
cyclooxygenase-2; 100 nM
  Inhibitory effects of cyclooxygenase (COX): COX-2: 48.8 % inhibition
cyclooxygenase-2; 300 nM
  Inhibitory effects of cyclooxygenase (COX): COX-2: 67.8 % inhibition

## COc1cc(OC)cc(-c2nc(C)nn2-c2ccc(S(N)(=O)=O)cn2)c1 [Example 22, 6-[5-(3,5-dimethoxy-phenyl)-3-methyl-[1,2,4]triazole-1-yl]-pyridine-3-sulfonic acid amide]
cyclooxygenase-1; 3 μM
  Inhibitory effects of cyclooxygenase (COX): COX-1: 15.1 % inhibition
cyclooxygenase-1; 10 μM
  Inhibitory effects of cyclooxygenase (COX): COX-1: 26.8 % inhibition
cyclooxygenase-1; 30 μM
  Inhibitory effects of cyclooxygenase (COX): COX-1: 31.1 % inhibition
cyclooxygenase-2; 30 nM
  Inhibitory effects of cyclooxygenase (COX): COX-2: 27.3 % inhibition
cyclooxygenase-2; 100 nM
  Inhibitory effects of cyclooxygenase (COX): COX-2: 29.8 % inhibition
cyclooxygenase-2; 300 nM
  Inhibitory effects of cyclooxygenase (COX): COX-2: 36.2 % inhibition

## Cc1nc(-c2ccccc2)n(-c2ccc(S(C)(=O)=O)cc2)n1 [Example 24, 1-(4-methanesulfony-phenyl)-3-methyl-5-phenyl-1H-[1,2,4]triazole]
cyclooxygenase-1; 3 μM
  Inhibitory effects of cyclooxygenase (COX): COX-1: 1.3 % inhibition
cyclooxygenase-1; 10 μM
  Inhibitory effects of cyclooxygenase (COX): COX-1: 40.8 % inhibition
cyclooxygenase-1; 30 μM
  Inhibitory effects of cyclooxygenase (COX): COX-1: 71.5 % inhibition
cyclooxygenase-2; 30 nM
  Inhibitory effects of cyclooxygenase (COX): COX-2: 29.7 % inhibition
cyclooxygenase-2; 100 nM
  Inhibitory effects of cyclooxygenase (COX): COX-2: 38.0 % inhibition
cyclooxygenase-2; 300 nM
  Inhibitory effects of cyclooxygenase (COX): COX-2: 64.4 % inhibition

## Cc1nc(-c2ccc(F)cc2)n(-c2ccc(S(C)(=O)=O)cc2)n1 [Example 26, 5-(4-fluoro-phenyl)-1-(4-methanesulfonyl-phenyl)-3-methyl-1H-[1,2,4]triazole]
cyclooxygenase-1; 3 μM
  Inhibitory effects of cyclooxygenase (COX): COX-1: 42.0 % inhibition
cyclooxygenase-1; 10 μM
  Inhibitory effects of cyclooxygenase (COX): COX-1: 51.2 % inhibition
cyclooxygenase-1; 30 μM
  Inhibitory effects of cyclooxygenase (COX): COX-1: 55.1 % inhibition
cyclooxygenase-2; 30 nM
  Inhibitory effects of cyclooxygenase (COX): COX-2: 20.1 % inhibition
cyclooxygenase-2; 100 nM
  Inhibitory effects of cyclooxygenase (COX): COX-2: 47.7 % inhibition
cyclooxygenase-2; 300 nM
  Inhibitory effects of cyclooxygenase (COX): COX-2: 64.0 % inhibition

## Cc1nc(-c2ccc(Cl)cc2)n(-c2ccc(S(C)(=O)=O)cc2)n1 [Example 28, 5-(4-chloro-phenyl)-1-(4-methanesulfonyl-phenyl)-3-methyl-1H-[1,2,4]triazole]
cyclooxygenase-1; 3 μM
  Inhibitory effects of cyclooxygenase (COX): COX-1: 72.9 % inhibition
cyclooxygenase-1; 10 μM
  Inhibitory effects of cyclooxygenase (COX): COX-1: 73.1 % inhibition
cyclooxygenase-1; 30 μM
  Inhibitory effects of cyclooxygenase (COX): COX-1: 85.4 % inhibition
cyclooxygenase-2; 30 nM
  Inhibitory effects of cyclooxygenase (COX): COX-2: 33.9 % inhibition
cyclooxygenase-2; 100 nM
  Inhibitory effects of cyclooxygenase (COX): COX-2: 38.8 % inhibition
cyclooxygenase-2; 300 nM
  Inhibitory effects of cyclooxygenase (COX): COX-2: 57.8 % inhibition

## Cc1nc(-c2ccc(Br)cc2)n(-c2ccc(S(C)(=O)=O)cc2)n1 [Example 30, 5-(4-bromo-phenyl)-1-(4-methanesulfonyl-phenyl)-3-methyl-1H-[1,2,4]triazole]
cyclooxygenase-1; 3 μM
  Inhibitory effects of cyclooxygenase (COX): COX-1: 77.6 % inhibition
cyclooxygenase-1; 10 μM
  Inhibitory effects of cyclooxygenase (COX): COX-1: 79.8 % inhibition
cyclooxygenase-1; 30 μM
  Inhibitory effects of cyclooxygenase (COX): COX-1: 82.1 % inhibition
cyclooxygenase-2; 30 nM
  Inhibitory effects of cyclooxygenase (COX): COX-2: 27.3 % inhibition
cyclooxygenase-2; 100 nM
  Inhibitory effects of cyclooxygenase (COX): COX-2: 29.8 % inhibition
cyclooxygenase-2; 300 nM
  Inhibitory effects of cyclooxygenase (COX): COX-2: 36.2 % inhibition
